Data published in patent US8835375B2 (Applied Nanosystems B.V., priority 2006, dated 2014).
“Also recorded” adds a separate entry of the source. One block for each substance: values may come before it. Non-standard residues stand in square brackets, D forms with d. No end group written: not given here. Abu = CC[C@H](N)C(=O)O

Experiments:
[1] = plasma from rat under continuous intravenous infusion (1 mL/hour); conditions: Sprague Dawley rat, up to 120 min
[2] = test system: Angiotensin Converting Enzyme (ACE); experiment: Angiotensin Converting Enzyme (ACE) from Porcine kidney, SIGMA, 8 nM in 100 mM Tris-HCl, 300 mm NaCl, 10 μM Zn, pH 8.3; conditions: 37° C.
[3] = test system: Angiotensin Converting Enzyme (ACE); experiment: Angiotensin Converting Enzyme (ACE) from Porcine kidney, SIGMA, 4 nM in 100 mM Tris-HCl, 300 mm NaCl, 10 μM Zn, pH 8.3; conditions: 37° C., up to 26 hour
angiotensinases = experiment: in the body; angiotensinases located in red blood cells and the vascular beds of most tissues; conditions: cited from earlier work
[4] = test system: angiotensin-I converting enzyme (ACE); experiment: angiotensin-I converting enzyme (ACE) of the vascular endothelium; conditions: cited from earlier work
[5] = cited from earlier work

- not cleaved [2]: no breakdown observed
- not cleaved [3]: no degradation after 26 hour
Substance: DRV[Abu]IHA
- not cleaved [1]: intact peptide detected in the sample taken at 120 min; very stable

Substance: Asp-Arg-Val-Tyr-Ile-His-Pro-Phe
- fragment found (angiotensinases): angiotensin III (Arg-Val-Tyr-Ile-His-Pro-Phe; or Ang(2-8)

Substance: DRVYIHPFHL
- cleaved bond [4]: Phe8-His9
- fragment found [5]: Ang(1-9); also recorded: Ang(1-7); also recorded: Ang III (Ang(2-8)); also recorded: Ang IV (Ang(3-8))
